Source: the OPERA property sets (Mansouri et al. 2018)
≈ marks a conversion by molar mass, not a printed value.

Compound | logP | further results
CN=C(O)/C(=N/OC)c1ccccc1Oc1ccccc1 | 2.32 | –
CCN(CC)C(=O)C(Cl)=C(C)OP(=O)(OC)OC | 0.79 | –
O=C(O)c1c(Cl)c(Cl)c(Cl)c(Cl)c1C(O)=Nc1cccc(Cl)c1Cl | – | solubility (26 °C): 31.3 µM (≈ 14 µg/mL)
CCCCN(CC)c1c([N+](=O)[O-])cc(C(F)(F)F)cc1[N+](=O)[O-] | 5.29 | solubility (25 °C): 0.298 µM (≈ 0.1 µg/mL)
CNc1cnn(-c2cccc(C(F)(F)F)c2)c(=O)c1Cl | – | solubility (25 °C): 111 µM (≈ 33.7 µg/mL)
CC1CCCCC1NC(=O)Nc1ccccc1 (centres undefined) | 3.8 | –
COc1cc(OC)nc(N=C(O)NS(=O)(=O)c2c(Cl)nc3ccccn23)n1 | – | solubility (pH 5.1, 25 °C): 16.3 µM (≈ 6.72 µg/mL)
CC(C)(SC(=O)N1CCCCC1)c1ccccc1 | 4.02 | solubility (25 °C): 75.9 µM (≈ 20 µg/mL)
CCOP(=S)(OCC)Oc1ccc(=O)n(-c2ccccc2)n1 | 3.2 | solubility (20 °C): 294 µM (≈ 100 µg/mL)
CCOc1nc(C(Cl)(Cl)Cl)ns1 | 3.37 | solubility (25 °C): 473 µM (≈ 117 µg/mL)
O=C(Nc1ccc(Cl)c(Cl)c1)Nc1cc(Cl)ccc1Oc1ccc(Cl)cc1S(=O)(=O)[O-].[Na+] | 1.89 | –
CC1(C)[C@H](C=C(Cl)Cl)[C@H]1C(=O)OCc1c(F)c(F)cc(F)c1F | – | solubility (20 °C): 0.154 µM (≈ 0.057 µg/mL)
Cc1cc(C)nc(Nc2ccccc2)n1 | – | logD (pH 6.1): 2.84; solubility (pH 6.1, 25 °C): 607 µM (≈ 121 µg/mL)
Clc1cccc(C(Cl)(Cl)Cl)n1 | – | solubility (25 °C): 233 µM (≈ 53.7 µg/mL)
COc1cc(OC)nc(N=C(O)NS(=O)(=O)N(C)S(C)(=O)=O)n1 | 1.63 | –
CCOC(=O)CSc1nc(C(C)(C)C)nn1C(=O)N(C)C | 2.69 | solubility (pH 7.0, 25 °C): 1380 µM (≈ 433 µg/mL)
Cc1c(F)c(F)c(COC(=O)C2C(/C=C(\Cl)C(F)(F)F)C2(C)C)c(F)c1F (centres undefined) | 6.5 | –
C/C=C(\C)C(=O)O[C@H]1C[C@@H](OC(C)=O)[C@@]2(C(=O)OC)CO[C@H]3[C@@H](O)[C@@](C)([C@]45O[C@@]4(C)[C@H]4C[C@@H]5O[C@@H]5OC=C[C@@]54O)[C@H]4[C@]1(CO[C@]4(O)C(=O)OC)[C@@H]32 | 1.09 | –
COc1cc(OC)nc(N=C(O)NS(=O)(=O)Nc2ccccc2C(=O)C2CC2)n1 | 2.05 | –
COc1cc(OC)nc(NC(=O)NS(=O)(=O)c2c(-c3nnn(C)n3)cnn2C)n1 | 0.65 | solubility (pH 7.0, 20 °C): 2470 µM (≈ 1050 µg/mL)
CCCCCC(C)OC(=O)COc1ccc(Cl)c2cccnc12 (centres undefined) | 5.03 | solubility (25 °C): 1.76 µM (≈ 0.59 µg/mL)
CS(=O)(=O)c1ccc(C(=O)C2C(=O)CCCC2=O)c(Cl)c1 | – | solubility (25 °C): 502 µM (≈ 165 µg/mL)
CCOC(=O)C1=NN(c2ccc(Cl)cc2Cl)C(C)(C(=O)OCC)C1 (centres undefined) | 3.83 | solubility (pH 6.2, 20 °C): 53.6 µM (≈ 20 µg/mL)
O=C(O)Cn1c(=O)sc2cccc(Cl)c21 | 1.34 | –
C=CCC1=C(C)C(OC(=O)C2C(C=C(C)C)C2(C)C)CC1=O (centres undefined) | – | solubility (25 °C): 15.2 µM (≈ 4.6 µg/mL)
N#Cc1nn(-c2c(Cl)cc(C(F)(F)F)cc2Cl)c(N)c1S(=O)C(F)(F)F (centres undefined) | 4 | solubility (20 °C): 4.35 µM (≈ 1.9 µg/mL)

Compound | logP | further results
CNC(=O)CSP(=O)(OC)OC | -0.74 | –
CCS(=O)CCSP(=O)(OC)OC (centres undefined) | -0.74 | –
COc1cc(OC)nc(Sc2cccc(Cl)c2C(=O)[O-])n1.[Na+] | – | logD (pH 5.0): 0.6
O=c1oc2ccccc2c(O)c1C1CC(c2ccc(-c3ccc(Br)cc3)cc2)Cc2ccccc21 (centres undefined) | 8.5 | –
COC(=O)CSc1cc(/N=c2\sc(=O)n3n2CCCC3)c(F)cc1Cl | 3.77 | –
CON=C(C)c1cccc(Oc2nc(OC)cc(OC)n2)c1C(=O)OC | 2.84 | solubility (20 °C): 249 µM (≈ 90 µg/mL)
CNC(=O)ON=C(C)C(C)SC (centres undefined) | 1.1 | solubility (20 °C): 184000 µM (≈ 35000 µg/mL)
CCCCOCC(C)OC(=O)COc1nc(F)c(Cl)c(N)c1Cl (centres undefined) | 4.17 | –
CCCCOCCOCCOCc1cc2c(cc1CCC)OCO2 | 4.75 | solubility (25 °C): 42.2 µM (≈ 14.3 µg/mL)
O=c1c2cc(F)ccc2nc(-n2cncn2)n1-c1ccc(Cl)cc1Cl | – | logD (pH 5.6): 3.24
Cc1ccc(NC(O)=NC(C)(C)c2ccccc2)cc1 | – | solubility (20 °C): 4.47 µM (≈ 1.2 µg/mL)
CCOc1ccc([Si](C)(C)CCCc2ccc(F)c(Oc3ccccc3)c2)cc1 | 8.2 | –
FC(F)C(F)(F)OCC(Cn1cncn1)c1ccc(Cl)cc1Cl (centres undefined) | 3.56 | –
COC(=O)/C=C(\C)OP(=O)(OC)OC | 0.13 | –
CCSC(=O)COc1ccc(Cl)cc1C | 4.05 | –
CCCOCCN(C(=O)CCl)c1c(CC)cccc1CC | 4.08 | solubility (20 °C): 160 µM (≈ 50 µg/mL)
CCCCCCCCSC(=O)Oc1cc(Cl)nnc1-c1ccccc1 | – | solubility (20 °C): 3.96 µM (≈ 1.5 µg/mL)
O=C1C2CC=CCC2C(=O)N1SC(Cl)(Cl)Cl (centres undefined) | 2.8 | –
CC1CCCCN1CCCOC(=O)c1ccc(Cl)c(Cl)c1 (centres undefined) | 4.31 | –
COc1cccc(C(=O)NN(C(=O)c2cc(C)cc(C)c2)C(C)(C)C)c1C | 3.7 | solubility: < 2.71 µM
CCOc1ccccc1OS(=O)(=O)NC(O)=Nc1nc(OC)cc(OC)n1 | 2.89 | solubility (pH 5.0, 20 °C): 65.3 µM (≈ 26 µg/mL)
COC(=O)c1c(Cl)c(Cl)c(C(=O)OC)c(Cl)c1Cl | 4.28 | solubility (25 °C): 1.51 µM (≈ 0.5 µg/mL)
O=C(NC(=O)c1c(F)cccc1F)Nc1ccc(OC(F)(F)C(F)OC(F)(F)F)c(Cl)c1 (centres undefined) | 5.27 | solubility (25 °C): 0.108 µM (≈ 0.0531 µg/mL)
CCCCOC(=O)C1(O)c2ccccc2-c2ccccc21 | 3.7 | –
CN(C)S(=O)(=O)N(SC(F)(Cl)Cl)c1ccccc1 | 3.7 | –
